The series is described as follows: Saturation and payload limits for dip coating a polyester mesh (Parietex monofilament mesh) with bupivacaine HCl solution (FIG. 8). In kind it is physicochemical. As to conditions: polyester mesh without a polymer film. The text has this:
Further, it is believed that spraying films on a medical device (e.g., mesh) compared to other conventional methods, such as dip coating, provides increased loading of the therapeutic agent.
More particularly FIG. 8 illustrates the loading limits for a polyester mesh (Parietex™ monofilament mesh) without a polymer film.

Molecules are shown by their SMILES. Where a name gives a salt, the structure may show the parent alone.

Regarding `CCCCN1CCCCC1C(=O)Nc1c(C)cccc1C` (centres unmarked) [bupivacaine hydrochloride], the “saturation and payload limits for dip coating” value (solution in MeOH) is on record as 12 % w/v; the “saturation and payload limits for dip coating” value (solution in water) is listed as 5 % w/v.

For the origin of these results see US20120009240A1, “Films for Delivery of a Therapeutic Agent” (priority 2010, published 2012).
